In this test the target is T1, Glycogen phosphorylase, muscle form (Oryctolagus cuniculus, UniProt P00489).
T1 sequence (P00489 whole entry): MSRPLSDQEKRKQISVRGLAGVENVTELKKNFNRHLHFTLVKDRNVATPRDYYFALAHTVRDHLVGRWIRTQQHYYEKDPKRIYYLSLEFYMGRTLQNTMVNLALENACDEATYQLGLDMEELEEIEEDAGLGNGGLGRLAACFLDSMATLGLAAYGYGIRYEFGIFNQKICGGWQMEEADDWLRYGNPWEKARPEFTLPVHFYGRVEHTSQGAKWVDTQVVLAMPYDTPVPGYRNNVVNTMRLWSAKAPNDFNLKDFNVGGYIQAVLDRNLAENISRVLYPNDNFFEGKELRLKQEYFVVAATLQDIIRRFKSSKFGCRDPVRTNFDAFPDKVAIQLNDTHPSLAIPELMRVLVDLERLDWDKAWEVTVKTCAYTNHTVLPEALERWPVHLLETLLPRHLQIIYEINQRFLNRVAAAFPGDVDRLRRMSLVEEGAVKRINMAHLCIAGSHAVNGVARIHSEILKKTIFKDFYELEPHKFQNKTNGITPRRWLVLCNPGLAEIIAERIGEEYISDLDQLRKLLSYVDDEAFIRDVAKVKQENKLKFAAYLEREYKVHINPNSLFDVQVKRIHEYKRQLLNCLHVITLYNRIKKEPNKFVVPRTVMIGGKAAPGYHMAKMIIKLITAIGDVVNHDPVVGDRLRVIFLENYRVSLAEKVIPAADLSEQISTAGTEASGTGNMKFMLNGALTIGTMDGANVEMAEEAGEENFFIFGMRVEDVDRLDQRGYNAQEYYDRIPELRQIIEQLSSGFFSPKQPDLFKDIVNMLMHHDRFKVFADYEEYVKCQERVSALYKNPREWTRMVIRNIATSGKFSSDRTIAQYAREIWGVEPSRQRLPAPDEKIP
Description: Inhibition of rabbit muscle glycogen phosphorylase A assessed as release of phosphate from glucose-1-phosphate after 25 mins by microplate reader based method.
Regarding `CC1(C)CC[C@]2(C(=O)O)CC[C@]3(C)C(=CC[C@@H]4[C@@]5(C)C[C@@H](O)CC(C)(C)[C@@H]5CC[C@]43C)[C@@H]2C1`, the IC50 came to 16.1 µM.

As for `CC1(C)CC[C@]2(C(=O)O)CC[C@]3(C)C(=CC[C@@H]4[C@@]5(C)C[C@H](O)CC(C)(C)[C@@H]5CC[C@]43C)[C@@H]2C1`, the IC50 worked out at 22.7 µM.

For the compound `CC1(C)CC[C@]2(C(=O)OC3CC3)CC[C@]3(C)C(=CC[C@@H]4[C@@]5(C)C[C@H](O)CC(C)(C)[C@@H]5CC[C@]43C)[C@@H]2C1`, the IC50 worked out at 23.1 µM.

For the compound `C[C@H]1[C@H](C)CC[C@]2(C(=O)OCc3ccccc3)CC[C@]3(C)C(=CC[C@@H]4[C@@]5(C)C[C@H](O)CC(C)(C)[C@@H]5CC[C@]43C)[C@H]12`, the IC50 turned out to be 22.3 µM.

Consider `CC1(C)CC[C@]2(C(=O)OCCCCCCN)CC[C@]3(C)C(=CC[C@@H]4[C@@]5(C)CC[C@H](O)C(C)(C)[C@@H]5CC[C@]43C)[C@@H]2C1`, for which the IC50 was 14.1 µM.

Regarding `CCCCNCCCCCCOC(=O)[C@]12CCC(C)(C)C[C@H]1C1=CC[C@@H]3[C@@]4(C)CC[C@H](O)C(C)(C)[C@@H]4CC[C@@]3(C)[C@]1(C)CC2`, the half-maximal inhibitory concentration (IC50) amounted to 12.6 µM.

Take `Cc1ccc(NCCCCCCOC(=O)[C@]23CCC(C)(C)C[C@H]2C2=CC[C@@H]4[C@@]5(C)CC[C@H](O)C(C)(C)[C@@H]5CC[C@@]4(C)[C@]2(C)CC3)cc1`: the IC50 was 28.1 µM.

As for `CO[C@H]1O[C@H](Cn2cc(COC(=O)[C@]34CCC(C)(C)C[C@H]3C3=CC[C@@H]5[C@@]6(C)CC[C@H](O)C(C)(C)[C@@H]6CC[C@@]5(C)[C@]3(C)CC4)nn2)[C@@H](O)[C@H](O)[C@H]1O`, the 50% inhibitory concentration (IC50) is 1.14 µM.

On to `CC(=O)OCCCCCCOC(=O)[C@H](O)CC(=O)OCCCCCCOC(=O)[C@]12CCC(C)(C)C[C@H]1C1=CC[C@@H]3[C@@]4(C)CC[C@H](O)C(C)(C)[C@@H]4CC[C@@]3(C)[C@]1(C)CC2`, for which the IC50 is 12.3 µM.

With `CC(=O)OCc1cn(CCCCCCn2cc(COC(=O)[C@]34CCC(C)(C)C[C@H]3C3=CC[C@@H]5[C@@]6(C)CC[C@H](O)C(C)(C)[C@@H]6CC[C@@]5(C)[C@]3(C)CC4)nn2)nn1`, the IC50 is 20.7 µM.

Turning to `CC1(C)CC[C@]2(C(=O)OCc3ccccc3)CC[C@]3(C)C(=CC[C@@H]4[C@@]5(C)CC[C@H](OC(=O)CCl)C(C)(C)[C@@H]5CC[C@]43C)[C@@H]2C1`, the IC50 turned out to be 12.6 µM.

Consider `CC1(C)CC[C@]2(C(=O)OCc3ccccc3)CC[C@]3(C)C(=CC[C@@H]4[C@@]5(C)CC[C@H](OC(=O)CN=[N+]=[N-])C(C)(C)[C@@H]5CC[C@]43C)[C@@H]2C1`, for which the IC50 turned out to be 12.7 µM.

Consider `CCN(CC)CC(=O)O[C@H]1CC[C@]2(C)[C@H]3CC=C4[C@@H]5CC(C)(C)CC[C@]5(C(=O)OCc5ccccc5)CC[C@@]4(C)[C@]3(C)CC[C@H]2C1(C)C`, for which the IC50 stood at 20.1 µM.

In the case of `CC1(C)CC[C@]2(C(=O)OCc3ccccc3)CC[C@]3(C)C(=CC[C@@H]4[C@@]5(C)CC[C@H](OC(=O)c6ccc([N+](=O)[O-])cc6)C(C)(C)[C@@H]5CC[C@]43C)[C@@H]2C1`, the 50% inhibitory concentration (IC50) is 16.1 µM.

Consider `CC1(C)CC[C@]2(C(=O)OCc3ccccc3)CC[C@]3(C)C(=CC[C@@H]4[C@@]5(C)CC[C@H](OC(=O)c6ccc(N)cc6)C(C)(C)[C@@H]5CC[C@]43C)[C@@H]2C1`, for which the IC50 was determined as 2.13 µM.

In the case of `CC1(C)CC[C@]2(C(=O)OCc3ccccc3)CC[C@]3(C)C(=CC[C@@H]4[C@@]5(C)CC[C@H](OC(=O)[n+]6ccccc6)C(C)(C)[C@@H]5CC[C@]43C)[C@@H]2C1`, the IC50 stood at 5.39 µM.

Regarding `CC1(C)CC[C@]2(C(=O)OCc3ccccc3)CC[C@]3(C)C(=CC[C@@H]4[C@@]5(C)CC[C@H](OC(=O)Cn6cc(COC(=O)Cc7ccccc7)nn6)C(C)(C)[C@@H]5CC[C@]43C)[C@@H]2C1`, the IC50 came out at 27.7 µM.

On to `CCCCCCCCCCCC(=O)OCc1cn(CC(=O)O[C@H]2CC[C@]3(C)[C@H]4CC=C5[C@@H]6CC(C)(C)CC[C@]6(C(=O)OCc6ccccc6)CC[C@@]5(C)[C@]4(C)CC[C@H]3C2(C)C)nn1`, for which the IC50 was 7.76 µM.

In the case of `COC(=O)[C@H](Cc1ccc(OCc2cn(CC(=O)O[C@H]3CC[C@]4(C)[C@H]5CC=C6[C@@H]7CC(C)(C)CC[C@]7(C(=O)OCc7ccccc7)CC[C@@]6(C)[C@]5(C)CC[C@H]4C3(C)C)nn2)cc1)NC(=O)OC(C)(C)C`, the IC50 came to 17.5 µM.

Take `CC(=O)O[C@H]1CC[C@]2(C)[C@H]3CC=C4[C@@H]5CC(C)(C)CC[C@]5(C(=O)OC[C@H](O)[C@H]5OC(=O)C(O)=C5O)CC[C@@]4(C)[C@]3(C)CC[C@H]2C1(C)C`: the half-maximal inhibitory concentration (IC50) was found to be 2.23 µM.

Turning to `CC(=O)NCCNCCNC(=O)[C@]12CCC(C)(C)C[C@H]1C1=CC[C@@H]3[C@@]4(C)CC[C@H](OC(C)=O)C(C)(C)[C@@H]4CC[C@@]3(C)[C@]1(C)CC2`, the IC50 was 3.25 µM.

For the compound `C[C@H]1[C@H](C)CC[C@]2(C(=O)OCCBr)CC[C@]3(C)C(=CC[C@@H]4[C@@]5(C)CC[C@H](O)C(C)(C)[C@@H]5CC[C@]43C)[C@H]12`, the IC50 is 10.2 µM.

On to `C[C@H]1[C@H](C)CC[C@]2(C(=O)OCCNC3CCCCC3)CC[C@]3(C)C(=CC[C@@H]4[C@@]5(C)CC[C@H](O)C(C)(C)[C@@H]5CC[C@]43C)[C@H]12`, for which the IC50 worked out at 25.6 µM.

For `CC(=O)O[C@H]1CC[C@]2(C)[C@H]3CC=C4[C@@H]5[C@@H](C)[C@H](C)CC[C@]5(C(=O)OC[C@H](O)[C@H]5OC(=O)C(O)=C5O)CC[C@@]4(C)[C@]3(C)CC[C@H]2C1(C)C`, the IC50 amounted to 1.53 µM.

Regarding `CC1(C)CC[C@]2(C(=O)O)CC[C@]3(C)C(=CC[C@@H]4[C@@]5(C)CC[C@H](OC(=O)Cn6cc(COC(=O)Cc7ccccc7)nn6)C(C)(C)[C@@H]5CC[C@]43C)[C@@H]2C1`, the IC50 came to 30.9 µM.

As to `COCc1cn(CCCCCCn2cc(CO[C@H]3CC[C@]4(C)[C@H]5CC=C6[C@@H]7CC(C)(C)CC[C@]7(C(=O)O)CC[C@@]6(C)[C@]5(C)CC[C@H]4C3(C)C)nn2)nn1`, the half-maximal inhibitory concentration (IC50) was 2.59 µM.

`C[C@H]1[C@H](C)CC[C@]2(C(=O)O)CC[C@]3(C)C(=CC[C@@H]4[C@@]5(C)C[C@H](O)CC(C)(C)[C@@H]5CC[C@]43C)[C@H]12`: the IC50 was determined as 20.6 µM.

With `CC1(C)CC[C@]2(C(=O)OCc3ccccc3)CC[C@]3(C)C(=CC[C@@H]4[C@@]5(C)C[C@H](O)[C@@H](O)C(C)(C)[C@@H]5CC[C@]43C)[C@@H]2C1`, the 50% inhibitory concentration (IC50) came to 6.59 µM.

For the compound `CC(=O)O[C@@H]1O[C@H](OC(=O)[C@]23CCC(C)(C)C[C@H]2C2=CC[C@@H]4[C@@]5(C)C[C@@H](O)[C@H](O)C(C)(C)[C@@H]5CC[C@@]4(C)[C@]2(C)CC3)[C@@H](OC(C)=O)[C@H](OC(C)=O)[C@H]1OC(C)=O`, the IC50 was found to be 18.6 µM.

Regarding `CCC(=O)O[C@@H]1C[C@]2(C)[C@H]3CC=C4[C@@H]5CC(C)(C)CC[C@]5(C(=O)O)CC[C@@]4(C)[C@]3(C)CC[C@H]2C(C)(C)[C@H]1OC(=O)CC`, the IC50 is 10.5 µM.

Turning to `CCCC(=O)O[C@@H]1C[C@]2(C)[C@H]3CC=C4[C@@H]5CC(C)(C)CC[C@]5(C(=O)O)CC[C@@]4(C)[C@]3(C)CC[C@H]2C(C)(C)[C@H]1OC(=O)CCC`, the concentration for half-maximal inhibition (IC50) was 25.2 µM.

For `C[C@H]1[C@H](C)CC[C@]2(C(=O)OCc3ccccc3)CC[C@]3(C)C(=CC[C@@H]4[C@@]5(C)C[C@H](O)[C@@H](O)C(C)(C)[C@@H]5CC[C@]43C)[C@H]12`, the IC50 was determined as 1.25 µM.

Consider `COC(=O)[C@H](Cc1ccccc1)NC(=O)[C@]12CC[C@@H](C)[C@H](C)[C@H]1C1=CC[C@@H]3[C@@]4(C)C[C@@H](OC(C)=O)[C@H](OC(C)=O)C(C)(C)[C@@H]4CC[C@@]3(C)[C@]1(C)CC2`, for which the IC50 came out at 23.9 µM.

As to `COC(=O)[C@H](Cc1ccc(O)cc1)NC(=O)[C@]12CC[C@@H](C)[C@H](C)[C@H]1C1=CC[C@@H]3[C@@]4(C)C[C@@H](OC(C)=O)[C@H](OC(C)=O)C(C)(C)[C@@H]4CC[C@@]3(C)[C@]1(C)CC2`, the IC50 was determined as 11.2 µM.

As for `CC1(C)CC[C@]2(C(=O)O)CC[C@]3(C)[C@H]([C@@H](O)C[C@@H]4[C@@]5(C)CC[C@H](O)C(C)(C)[C@@H]5CC[C@]43C)[C@@H]2C1`, the IC50 is 3.07 µM.

In the case of `CC1(C)CC[C@]2(C(=O)OCc3ccccc3)CC[C@]3(C)[C@H]([C@@H](O)C[C@@H]4[C@@]5(C)CC[C@H](O)C(C)(C)[C@@H]5CC[C@]43C)[C@@H]2C1`, the IC50 stood at 6.54 µM.

With `CC(=O)O[C@@H]1C[C@]2(C)[C@H]3CC=C4[C@@H]5CC(C)(C)CC[C@]5(C(=O)O)CC[C@@]4(C)[C@]3(C)CC[C@H]2C(C)(C)[C@H]1OC(C)=O`, the IC50 amounted to 13.3 µM.

`CC1(C)CC[C@]2(C(=O)O)CC[C@]3(C)C(=CC[C@@H]4[C@@]5(C)Cc6nc7ccccc7nc6C(C)(C)[C@@H]5CC[C@]43C)[C@@H]2C1`: the IC50 worked out at 14 µM.

As to `CC1(C)CC[C@]2(C(=O)O)CC[C@]3(C)C(=CC[C@@H]4[C@@]5(C)Cc6nccnc6C(C)(C)[C@@H]5CC[C@]43C)[C@@H]2C1`, the IC50 turned out to be 25.1 µM.

One may read the IC50 as the concentration that inhibits the measured activity by half.

Source of the values: ChEMBL document CHEMBL1795338, “Identification of pentacyclic triterpenes derivatives as potent inhibitors against glycogen phosphorylase based on 3D-QSAR studies” (Eur J Med Chem, 2011).
